Values joined by “and” are separate entries in the source; they are usually repeats but may differ in a detail not shown here. Identical values can stand only once.
Details: 283.15 K, Liquid, Vibrating tube method

CCCCCC(=O)OCC(COC(=O)CCCCC)(COC(=O)CCCCC)COC(=O)CCCCC [pentaerythritol tetrahexanoate]
Details	mass density
9284.9 kPa	1009.6 kg/m3
9306.2 kPa	1009.5 kg/m3
9324.2 kPa	1009.5 kg/m3
9341.7 kPa	1009.5 kg/m3
9359.5 kPa	1009.5 kg/m3
9380.7 kPa	1009.4 kg/m3
9398.1 kPa	1009.6 kg/m3
9416 kPa	1009.6 kg/m3
9436.7 kPa	1009.6 kg/m3
9454.6 kPa	1009.6 kg/m3
9473 kPa	1009.6 kg/m3
9490.6 kPa	1009.6 kg/m3
9508.2 kPa	1009.7 kg/m3
9529 kPa	1009.7 kg/m3
9546.3 kPa	1009.7 kg/m3
9563.7 kPa	1009.7 kg/m3
9585 kPa	1009.7 kg/m3
9602.4 kPa	1009.6 kg/m3
9623.6 kPa	1009.7 kg/m3
9642.2 kPa	1009.7 kg/m3
9660.2 kPa	1009.7 kg/m3
9681 kPa	1009.8 kg/m3
9690.2 kPa	1009.7 kg/m3
9690.5 kPa	1009.7 kg/m3
9691 kPa	1009.8 kg/m3
9691.2 kPa	1009.9 kg/m3
9691.4 kPa	1009.8 kg/m3
9691.5 kPa	1009.7 kg/m3
9691.6 kPa	1009.8 kg/m3
9691.9 kPa	1009.7 kg/m3
9692 kPa	1009.8 kg/m3
9692.1 kPa	1009.6 kg/m3
9692.4 kPa	1009.7 kg/m3
9692.6 kPa	1009.8 kg/m3
9692.8 kPa	1009.7 kg/m3
9693.3 kPa	1009.8 kg/m3
9693.4 kPa	1009.8 kg/m3
9693.8 kPa	1009.8 kg/m3
9693.9 kPa	1009.8 kg/m3
9694.3 kPa	1009.8 kg/m3
9694.5 kPa	1009.8 kg/m3
9695 kPa	1009.8 kg/m3
9695.1 kPa	1009.9 kg/m3
9695.3 kPa	1009.9 kg/m3
9695.7 kPa	1009.7 kg/m3 and 1009.8 kg/m3
9695.8 kPa	1009.9 kg/m3
9696.2 kPa	1009.8 kg/m3
9696.4 kPa	1009.8 kg/m3
9696.5 kPa	1009.8 kg/m3
9696.7 kPa	1009.8 kg/m3
9696.9 kPa	1009.8 kg/m3
9697.2 kPa	1009.8 kg/m3
9697.6 kPa	1009.8 kg/m3
9698.1 kPa	1009.5 kg/m3 and 1009.8 kg/m3
9698.2 kPa	1009.8 kg/m3
9698.3 kPa	1009.9 kg/m3
9698.9 kPa	1009.7 kg/m3
9699 kPa	1009.7 kg/m3
9699.1 kPa	1009.7 kg/m3
9699.3 kPa	1009.7 kg/m3
9699.6 kPa	1009.7 kg/m3
9699.8 kPa	1009.7 kg/m3 and 1009.9 kg/m3
9700 kPa	1009.8 kg/m3 and 1009.6 kg/m3
9700.1 kPa	1009.8 kg/m3 and 1009.7 kg/m3
9700.3 kPa	1009.7 kg/m3 and 1009.8 kg/m3
9700.7 kPa	1009.7 kg/m3
9700.8 kPa	1009.7 kg/m3
9701 kPa	1009.7 kg/m3
9701.5 kPa	1009.8 kg/m3 and 1009.7 kg/m3
9701.7 kPa	1009.8 kg/m3
9754.8 kPa	1009.8 kg/m3
9769.2 kPa	1009.7 kg/m3
9783.6 kPa	1009.8 kg/m3
9797.3 kPa	1009.7 kg/m3
9814.5 kPa	1009.7 kg/m3
9828.7 kPa	1009.8 kg/m3
9845.7 kPa	1009.7 kg/m3
9859.7 kPa	1009.8 kg/m3
9874.3 kPa	1009.8 kg/m3
9888.8 kPa	1009.8 kg/m3
9905.8 kPa	1009.8 kg/m3
9919.9 kPa	1009.9 kg/m3
9934.6 kPa	1009.9 kg/m3
9951.8 kPa	1009.9 kg/m3
9966.6 kPa	1009.9 kg/m3
9984 kPa	1009.8 kg/m3
9998.7 kPa	1009.8 kg/m3
10013 kPa	1009.9 kg/m3
10027 kPa	1010 kg/m3
10045 kPa	1009.8 kg/m3
10060 kPa	1009.9 kg/m3
10074 kPa	1009.9 kg/m3
10091 kPa	1010 kg/m3
10106 kPa	1010 kg/m3
10120 kPa	1009.9 kg/m3
10135 kPa	1009.9 kg/m3
10152 kPa	1010 kg/m3
10166 kPa	1010 kg/m3
10181 kPa	1010 kg/m3
10195 kPa	1010 kg/m3
10212 kPa	1010.1 kg/m3
10226 kPa	1010.1 kg/m3
10244 kPa	1010 kg/m3
10258 kPa	1010 kg/m3
10273 kPa	1010 kg/m3
10288 kPa	1009.9 kg/m3
10305 kPa	1010.1 kg/m3
10320 kPa	1010 kg/m3
10334 kPa	1010.1 kg/m3
10352 kPa	1010.1 kg/m3
10367 kPa	1010.2 kg/m3
10382 kPa	1010.1 kg/m3
10400 kPa	1010.1 kg/m3
10415 kPa	1010.2 kg/m3
10430 kPa	1010.1 kg/m3
10445 kPa	1010.1 kg/m3
10463 kPa	1010.2 kg/m3
10478 kPa	1010.2 kg/m3
10496 kPa	1010.1 kg/m3
10511 kPa	1010.2 kg/m3
10526 kPa	1010.1 kg/m3
10541 kPa	1010.3 kg/m3
10559 kPa	1010.2 kg/m3
10575 kPa	1010.3 kg/m3
10590 kPa	1010.2 kg/m3
10608 kPa	1010.2 kg/m3
10622 kPa	1010.3 kg/m3
10638 kPa	1010.2 kg/m3
10656 kPa	1010.3 kg/m3
10671 kPa	1010.4 kg/m3
10686 kPa	1010.3 kg/m3
10704 kPa	1010.4 kg/m3
10719 kPa	1010.2 kg/m3
10733 kPa	1010.3 kg/m3
10749 kPa	1010.2 kg/m3
10766 kPa	1010.3 kg/m3
10780 kPa	1010.3 kg/m3
10798 kPa	1010.3 kg/m3
10812 kPa	1010.4 kg/m3
10826 kPa	1010.4 kg/m3
10840 kPa	1010.4 kg/m3
10858 kPa	1010.4 kg/m3
10872 kPa	1010.3 kg/m3
10887 kPa	1010.4 kg/m3
10904 kPa	1010.4 kg/m3
